{"source": "ChEMBL document CHEMBL4177616", "about": "“Potent anti-melanogenic activity and favorable toxicity profile of selected 4-phenyl hydroxycoumarins in the zebrafish model and the computational molecular modeling studies” (Bioorg Med Chem, 2017)", "key": {"Danio rerio [1]": {"species": "Danio rerio", "assay": "Toxicity in wild type zebrafish embryos assessed as head malformation at 500 ug/ml treated for 96 hrs post fertilization starting from 6 hrs post fertilization by inverted microscopic analysis relative to control", "type": "organism-based", "settings": "in vivo"}, "Danio rerio [2]": {"species": "Danio rerio", "assay": "Toxicity in wild type zebrafish embryos assessed as growth retardation at 100 ug/ml treated for 96 hrs post fertilization starting from 6 hrs post fertilization by inverted microscopic analysis relative to control", "type": "organism-based", "settings": "in vivo"}, "Danio rerio [3]": {"system": "Danio rerio", "assay": "Toxicity in wild type zebrafish embryos assessed as pericardial edema at 100 ug/ml treated for 96 hrs post fertilization starting from 6 hrs post fertilization by inverted microscopic analysis relative to control", "type": "organism-based", "settings": "in vivo"}, "Danio rerio [4]": {"species": "Danio rerio", "assay": "Toxicity in wild type zebrafish embryos assessed as teratogenic embryo at 500 ug/ml treated for 96 hrs post fertilization starting from 6 hrs post fertilization by inverted microscopic analysis relative to control", "type": "organism-based", "settings": "in vivo"}, "Danio rerio [5]": {"species": "Danio rerio", "assay": "Toxicity in wild type zebrafish embryos assessed as head malformation at 2500 ug/ml treated for 96 hrs post fertilization starting from 6 hrs post fertilization by inverted microscopic analysis relative to control", "type": "organism-based", "settings": "in vivo"}, "Danio rerio [6]": {"species": "Danio rerio", "assay": "Toxicity in wild type zebrafish embryos assessed as head malformation at 100 ug/ml treated for 96 hrs post fertilization starting from 6 hrs post fertilization by inverted microscopic analysis relative to control", "type": "organism-based", "settings": "in vivo"}, "Danio rerio [7]": {"species": "Danio rerio", "assay": "Toxicity in wild type zebrafish embryos assessed as heart beat at 100 ug/ml treated for 96 hrs post fertilization starting from 6 hrs post fertilization by inverted microscopic analysis relative to control", "type": "organism-based", "settings": "in vivo"}, "Danio rerio [8]": {"species": "Danio rerio", "assay": "Toxicity in wild type zebrafish embryos assessed as notochord at 100 ug/ml treated for 96 hrs post fertilization starting from 6 hrs post fertilization by inverted microscopic analysis relative to control", "type": "organism-based", "settings": "in vivo"}, "Danio rerio [9]": {"species": "Danio rerio", "assay": "Toxicity in wild type zebrafish embryos assessed as blood circulation at 1000 ug/ml treated for 96 hrs post fertilization starting from 6 hrs post fertilization by inverted microscopic analysis relative to control", "type": "organism-based", "settings": "in vivo"}, "Danio rerio [10]": {"species": "Danio rerio", "assay": "Toxicity in wild type zebrafish embryos assessed as heart beat at 1000 ug/ml treated for 96 hrs post fertilization starting from 6 hrs post fertilization by inverted microscopic analysis relative to control", "type": "organism-based", "settings": "in vivo"}, "Danio rerio [11]": {"species": "Danio rerio", "assay": "Toxicity in wild type zebrafish embryos assessed as growth retardation at 1000 ug/ml treated for 96 hrs post fertilization starting from 6 hrs post fertilization by inverted microscopic analysis relative to control", "type": "organism-based", "settings": "in vivo"}, "Danio rerio [12]": {"system": "Danio rerio", "assay": "Toxicity in wild type zebrafish embryos assessed as yolk edema at 100 ug/ml treated for 96 hrs post fertilization starting from 6 hrs post fertilization by inverted microscopic analysis relative to control", "type": "organism-based", "settings": "in vivo"}, "Danio rerio [13]": {"species": "Danio rerio", "assay": "Toxicity in wild type zebrafish embryos assessed as normal embryo at 2500 ug/ml treated for 96 hrs post fertilization starting from 6 hrs post fertilization by inverted microscopic analysis relative to control", "type": "organism-based", "settings": "in vivo"}, "Danio rerio [14]": {"species": "Danio rerio", "assay": "Toxicity in wild type zebrafish embryos assessed as scoliosis at 2.5 ug/ml treated for 96 hrs post fertilization starting from 6 hrs post fertilization by inverted microscopic analysis relative to control", "type": "organism-based", "settings": "in vivo"}, "Danio rerio [15]": {"system": "Danio rerio", "assay": "Toxicity in wild type zebrafish embryos assessed as yolk edema at 2000 ug/ml treated for 96 hrs post fertilization starting from 6 hrs post fertilization by inverted microscopic analysis relative to control", "type": "organism-based", "settings": "in vivo"}, "Danio rerio [16]": {"species": "Danio rerio", "assay": "Toxicity in wild type zebrafish embryos assessed as otoliths at 500 ug/ml treated for 96 hrs post fertilization starting from 6 hrs post fertilization by inverted microscopic analysis relative to control", "type": "organism-based", "settings": "in vivo"}, "Neutrophil [17]": {"system": "Neutrophil", "assay": "Anti-melanogenic activity in mpx:GFP transgenic zebrafish 24 hrs post fertilization embryo neutrophils assessed as decrease in pigmentation at 2 to 2.5 mg/ml", "type": "functional, cell-based", "settings": "Danio rerio"}, "Neutrophil [18]": {"system": "Neutrophil", "assay": "Cytotoxicity against mpx:GFP transgenic zebrafish 24 hrs post fertilization embryo neutrophils assessed as loss in neutrophil at 2 to 2.5 mg/ml", "type": "cell-based, Danio rerio"}, "Danio rerio [19]": {"species": "Danio rerio", "assay": "Anti-melanogenic activity in wild type zebrafish 24 hrs post fertilization embryos assessed as decrease in body pigmentation at 100 ug/ml after 48 hrs", "type": "functional, organism-based"}, "Danio rerio [20]": {"species": "Danio rerio", "assay": "Anti-melanogenic activity in wild type zebrafish 24 hrs post fertilization embryos assessed as decrease in body pigmentation at >= 500 ug/ml after 48 hrs", "type": "functional, organism-based"}, "Danio rerio [21]": {"system": "Danio rerio", "assay": "Toxicity in wild type zebrafish embryos assessed as pericardial edema at 1000 ug/ml treated for 96 hrs post fertilization starting from 6 hrs post fertilization by inverted microscopic analysis relative to control", "type": "organism-based", "settings": "in vivo"}, "Danio rerio [22]": {"species": "Danio rerio", "assay": "Toxicity in wild type zebrafish embryos assessed as eyes at 2500 ug/ml treated for 96 hrs post fertilization starting from 6 hrs post fertilization by inverted microscopic analysis relative to control", "type": "organism-based", "settings": "in vivo"}, "Danio rerio [23]": {"species": "Danio rerio", "assay": "Toxicity in wild type zebrafish embryos assessed as growth retardation at 2500 ug/ml treated for 96 hrs post fertilization starting from 6 hrs post fertilization by inverted microscopic analysis relative to control", "type": "organism-based", "settings": "in vivo"}, "Danio rerio [24]": {"species": "Danio rerio", "assay": "Toxicity in wild type zebrafish embryos assessed as skeletal deformities at 500 ug/ml treated for 96 hrs post fertilization starting from 6 hrs post fertilization by inverted microscopic analysis relative to control", "type": "organism-based", "settings": "in vivo"}, "Danio rerio [25]": {"system": "Danio rerio", "assay": "Toxicity in wild type zebrafish embryos assessed as pericardial edema at 2000 ug/ml treated for 96 hrs post fertilization starting from 6 hrs post fertilization by inverted microscopic analysis relative to control", "type": "organism-based", "settings": "in vivo"}, "Danio rerio [26]": {"system": "Danio rerio", "assay": "Toxicity in wild type zebrafish embryos assessed as pericardial edema at 2500 ug/ml treated for 96 hrs post fertilization starting from 6 hrs post fertilization by inverted microscopic analysis relative to control", "type": "organism-based", "settings": "in vivo"}, "Danio rerio [27]": {"species": "Danio rerio", "assay": "Toxicity in wild type zebrafish embryos assessed as skeletal deformities at 1000 ug/ml treated for 96 hrs post fertilization starting from 6 hrs post fertilization by inverted microscopic analysis relative to control", "type": "organism-based", "settings": "in vivo"}, "Danio rerio [28]": {"system": "Danio rerio", "assay": "Toxicity in wild type zebrafish embryos assessed as pericardial edema at 500 ug/ml treated for 96 hrs post fertilization starting from 6 hrs post fertilization by inverted microscopic analysis relative to control", "type": "organism-based", "settings": "in vivo"}, "Danio rerio [29]": {"species": "Danio rerio", "assay": "Toxicity in wild type zebrafish embryos assessed as normal embryo at 100 ug/ml treated for 96 hrs post fertilization starting from 6 hrs post fertilization by inverted microscopic analysis relative to control", "type": "organism-based", "settings": "in vivo"}, "Danio rerio [30]": {"species": "Danio rerio", "assay": "Toxicity in wild type zebrafish embryos assessed as notochord at 1000 ug/ml treated for 96 hrs post fertilization starting from 6 hrs post fertilization by inverted microscopic analysis relative to control", "type": "organism-based", "settings": "in vivo"}, "Danio rerio [31]": {"species": "Danio rerio", "assay": "Toxicity in wild type zebrafish embryos assessed as eyes at 1000 ug/ml treated for 96 hrs post fertilization starting from 6 hrs post fertilization by inverted microscopic analysis relative to control", "type": "organism-based", "settings": "in vivo"}, "[32]": {"assay": "Toxicity in wild type zebrafish embryos assessed as dead embryo at 100 ug/ml treated for 96 hrs post fertilization starting from 6 hrs post fertilization by inverted microscopic analysis relative to control", "type": "organism-based, Danio rerio", "settings": "in vivo, read-out: Activity"}, "Danio rerio [33]": {"species": "Danio rerio", "assay": "Toxicity in wild type zebrafish embryos assessed as unhatched embryo at 2000 ug/ml treated for 96 hrs post fertilization starting from 6 hrs post fertilization by inverted microscopic analysis relative to control", "type": "organism-based", "settings": "in vivo"}}, "note": "Calls of active or inactive are those of the source. The rule behind the calls is not given here.", "data": [{"smiles": "O=c1cc(CO)occ1O", "note": "[KOJIC ACID]", "values": [{"measurement": "Activity", "setting": "Danio rerio [1]", "value": 0, "unit": "%"}, {"measurement": "Activity", "setting": "Danio rerio [2]", "value": 0, "unit": "%"}, {"measurement": "Activity", "setting": "Danio rerio [3]", "value": 35, "unit": "%"}, {"measurement": "Activity", "setting": "Danio rerio [4]", "value": 86.67, "unit": "%"}, {"measurement": "Activity", "setting": "Danio rerio [5]", "value": 98.33, "unit": "%"}, {"measurement": "Activity", "setting": "Danio rerio [6]", "value": 0, "unit": "%"}, {"measurement": "Activity", "setting": "Danio rerio [7]", "value": 0, "unit": "%"}, {"measurement": "Activity", "setting": "Danio rerio [8]", "value": 0, "unit": "%"}, {"measurement": "Activity", "setting": "Danio rerio [9]", "value": 0, "unit": "%"}, {"measurement": "Activity", "setting": "Danio rerio [10]", "value": 83.33, "unit": "%"}, {"measurement": "Activity", "setting": "Danio rerio [11]", "value": 0, "unit": "%"}, {"measurement": "Activity", "setting": "Danio rerio [12]", "value": 0, "unit": "%"}, {"measurement": "Activity", "setting": "Danio rerio [13]", "value": 0, "unit": "%"}, {"measurement": "Activity", "setting": "Danio rerio [14]", "value": "Toxic"}, {"measurement": "Activity", "setting": "Danio rerio [15]", "value": 0, "unit": "%"}, {"measurement": "Activity", "setting": "Danio rerio [16]", "value": 0, "unit": "%"}, {"measurement": "Activity", "setting": "Neutrophil [17]", "value": "Active"}, {"measurement": "Activity", "setting": "Neutrophil [18]", "value": "Toxic"}, {"measurement": "Activity", "setting": "Danio rerio [19]", "value": "inactive"}, {"measurement": "Activity", "setting": "Danio rerio [20]", "value": "Active"}, {"measurement": "Activity", "setting": "Danio rerio [21]", "value": 98.33, "unit": "%"}, {"measurement": "Activity", "setting": "Danio rerio [22]", "value": 0, "unit": "%"}, {"measurement": "Activity", "setting": "Danio rerio [23]", "value": 35, "unit": "%"}, {"measurement": "Activity", "setting": "Danio rerio [24]", "value": 0, "unit": "%"}, {"measurement": "Activity", "setting": "Danio rerio [25]", "value": 100, "unit": "%"}, {"measurement": "Activity", "setting": "Danio rerio [26]", "value": 100, "unit": "%"}, {"measurement": "Activity", "setting": "Danio rerio [27]", "value": 0, "unit": "%"}, {"measurement": "Activity", "setting": "Danio rerio [28]", "value": 86.67, "unit": "%"}, {"measurement": "Activity", "setting": "Danio rerio [29]", "value": 65, "unit": "%"}, {"measurement": "Activity", "setting": "Danio rerio [30]", "value": 0, "unit": "%"}, {"measurement": "Activity", "setting": "Danio rerio [31]", "value": 0, "unit": "%"}, {"measurement": "mortality at 100 ug/ml", "setting": "[32]", "value": 0, "unit": "%"}, {"measurement": "Activity", "setting": "Danio rerio [33]", "value": 0, "unit": "%"}]}]}
